The supplement of paper PMC10307832

Key:
Assay in all cases: relative viability (nuclei count vs DMSO), 5 days (fraction); higher = more cells survive
[1] = compound: C1CC(C2=C(C1)C3=C(N2)C=CC(=C3)Cl)C(=O)N [Selisistat] + COc1cc2c(Oc3ccc(NC(=O)C4(C(=O)Nc5ccc(F)cc5)CC4)cc3F)ccnc2cc1OCCCN1CCOCC1 [Foretinib] (partner 0.25 µM)
In short: (§1)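 Lung cancer cell lines in 1536-well plates were dosed by pin tool the day after seeding, either with one drug alone or with a fixed anchor-drug dose plus five library-drug doses (not always all listed) in √10 steps. After 5 days, cells were fixed and their nuclei stained in one step (final 0.05% Triton X-100, 1% formaldehyde, 1 ug/ml Hoechst), then counted on 4× images. Relative viability is the nuclei count in treated wells divided by that in vehicle wells. Values are medians of duplicate plates.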

[2] = compound: C1CC(C2=C(C1)C3=C(N2)C=CC(=C3)Cl)C(=O)N [Selisistat] + O=C(CCCCCCC(=O)Nc1ccccc1)NO [Vorinostat] (partner 1 µM)
In short: as §1

[3] = compound: c1ccc2c(CCNc3ccc(Nc4ccncc4)cc3)c[nH]c2c1 [Serdemetan] + CC(=O)Nc1cccc(-n2c(=O)n(C3CC3)c(=O)c3c(Nc4ccc(I)cc4F)n(C)c(=O)c(C)c32)c1 [Trametinib] (partner 0.02 µM)
In short: as §1

[4] = compound: c1ccc2c(CCNc3ccc(Nc4ccncc4)cc3)c[nH]c2c1 [Serdemetan] + CC1(C)CCC(c2ccc(Cl)cc2)=C(CN2CCN(c3ccc(C(=O)NS(=O)(=O)c4ccc(N[C@H](CCN5CCOCC5)CSc5ccccc5)c(S(=O)(=O)C(F)(F)F)c4)cc3)CC2)C1 [Navitoclax] (partner 0.5 µM)
In short: as §1

| Cell Line | relative viability ([1]; first compound 0.4 µM) | relative viability ([1]; first compound 1.265 µM) | relative viability ([1]; first compound 4 µM) | relative viability ([1]; first compound 12.65 µM) | relative viability ([1]; first compound 40 µM) | relative viability ([2]; first compound 0.4 µM) | relative viability ([2]; first compound 1.265 µM) | relative viability ([2]; first compound 12.65 µM) | relative viability ([2]; first compound 40 µM) | relative viability ([3]; first compound 0.04 µM) | relative viability ([3]; first compound 0.1265 µM) | relative viability ([3]; first compound 0.4 µM) | relative viability ([3]; first compound 1.265 µM) | relative viability ([3]; first compound 4 µM) | relative viability ([4]; first compound 0.04 µM) | relative viability ([4]; first compound 0.1265 µM) | relative viability ([4]; first compound 1.265 µM) | relative viability ([4]; first compound 4 µM) | relative viability ([2]; first compound 4 µM) | relative viability ([4]; first compound 0.4 µM) |
| --- | --- | --- | --- | --- | --- | --- | --- | --- | --- | --- | --- | --- | --- | --- | --- | --- | --- | --- | --- | --- |
| PC-3 [JPC-3] | 1.07 | 1.04 | 1.01 | 1.07 | 1.06 | 0.899 | 0.979 | 0.748 | 0.691 | 0.708 | 0.634 | 0.663 | 0.67 | 0.684 | 0.747 | 0.713 | 0.76 | 0.762 |  |  |
| PC-14 | 0.946 | 0.982 | 0.826 | 0.908 | 0.946 | 0.914 | 0.764 | 0.776 | 0.931 | 0.798 | 0.747 |  | 0.647 | 0.601 | 0.977 | 0.974 | 0.923 | 0.697 | 0.843 | 0.954 |
| RERF-LC-KJ | 0.902 | 0.783 | 0.84 | 0.829 | 0.803 | 0.665 | 0.759 | 0.763 | 0.708 | 0.896 | 0.874 | 0.898 | 0.793 | 0.778 | 1.15 | 0.842 | 0.805 | 0.983 | 0.731 | 1.06 |
